Results on two molecules are retold here after patent US20130053243A1, “PLANTS HAVING INCREASED TOLERANCE TO HERBICIDES” (BASF SE, priority 2010, published 2013).

Holding throughout (type): in vivo, Glycine max
In test [1] the test system is transgenic soybean plants, event AV3639 (AtHPPD). The test is described as follows: Greenhouse spray test, transgenic soybean T0 cuttings. Particulars: two weeks after treatment, scale 0 (no injury) to 9 (complete death). The protocol:
(§1) Transgenic plants expressing heterologous HPPD or HST enzymes are tested for tolerance against coumarone-derivative herbicides in greenhouse experiments.
(§2) For post emergence treatment, the test plants are first grown to a height of 3 to 15 cm, depending on the plant habit, and only then treated with the herbicides. For this purpose, the test plants are either sown directly and grown in the same containers, or they are first grown separately and transplanted into the test containers a few days prior to treatment.
(§3) For testing of T0 plants, cuttings can be used. In the case of soybean plants, an optimal shoot for cutting is about 7.5 to 10 cm tall, with at least two nodes present. Each cutting is taken from the original transformant (mother plant) and dipped into rooting hormone powder (indole-3-butyric acid, IBA). The cutting is then placed in oasis wedges inside a bio-dome. Wild type cuttings are also taken simultaneously to serve as controls. The cuttings are kept in the bio-dome for 5-7 days and then transplanted to pots and then acclimated in the growth chamber for two more days. Subsequently, the cuttings are transferred to the greenhouse, acclimated for approximately 4 days, and then subjected to spray tests as indicated. Depending on the species, the plants are kept at 10-25° C. or 20-35° C. The test period extends over 3 weeks. During this time, the plants are tended and their response to the individual treatments is evaluated. Herbicide injury evaluations are taken at 2 and 3 weeks after treatment. Plant injury is rated on a scale of 0 to 9, 0 being no injury and 9 being complete death.

Test [2] deals with transgenic soybean plants, event LG4628 (CrHPPD2). The description is as above. The note with it: two weeks after treatment, scale 0 (no injury) to 9 (complete death). The protocol:
as §1, §2, §3

Test [3] concerns transgenic soybean plants, event AV3653 (AtHPPD). The test is described as above. The note with it: two weeks after treatment, scale 0 (no injury) to 9 (complete death). The protocol: as §1, §2, §3
Test [4] concerns transgenic soybean plants, event AV3646 (CrHPPD1). The test is described as above. Particulars: two weeks after treatment, scale 0 (no injury) to 9 (complete death). Here is the method:
as §1, §2, §3

Test [5] has as its system transgenic soybean plants, event AV3641 (AtHPPD). The test is described as above. The note with it: two weeks after treatment, scale 0 (no injury) to 9 (complete death). The protocol: as §1, §2, §3
In test [6] the test system is transgenic soybean plants, event LG4564. The test is described as above. The note with it: event LG4564, CrHPPD2 (head unclear), two weeks after treatment, scale 0 (no injury) to 9 (complete death). The protocol:
as §1, §2, §3

The test system of test [7] is soybean plants, wild type (non-transformed). The test can be described thus: Greenhouse spray test, soybean T0 cuttings. Particulars: no transgene, two weeks after treatment, scale 0 (no injury) to 9 (complete death). Here is the method:
as §1, §2, §3

Molecules are shown by their SMILES.

In the case of `CC1=NOC(c2c(Cl)ccc(C3=C(O)c4ncccc4N(CC(F)F)S3(=O)=O)c2Cl)C1` (centres unmarked) [Inhibitor 1, 3-[2,4-dichloro-3-(3-methyl-4,5-dihydroisoxazol-5-yl)phenyl]-1-(2,2-difluoroethyl)-2,2-dioxo-pyrido[3,2-c]thiazin-4-ol], the “Injury evaluation (plant injury rating)” value in test [1] (50 g/ha) is listed as 3; in test [1] (100 g/ha), 2; in test [1] (200 g/ha) it was 3; in test [2] (50 g/ha), 4; in test [2] (100 g/ha), 3; in test [2] (200 g/ha), 4. The “Injury evaluation (plant injury rating)” value is reported as 3 in test [3] (50 g/ha); 3 in test [3] (100 g/ha); 3 in test [3] (200 g/ha); 3 in test [4] (50 g/ha); 4 in test [4] (100 g/ha); 4 in test [4] (200 g/ha). For the same molecule, the “Injury evaluation (plant injury rating)” value in test [5] (50 g/ha) amounted to 2; in test [5] (100 g/ha) it was 2; in test [5] (200 g/ha), 3; in test [6] (50 g/ha), 3; in test [6] (100 g/ha), 3; in test [6] (200 g/ha) it was 4. The “Injury evaluation (plant injury rating)” value is reported as 4.5 in test [7] (50 g/ha), 5.5 in test [7] (100 g/ha) and 6 in test [7] (200 g/ha).

In the case of `Cc1c(C(=O)c2cnn(C)c2O)ccc(S(C)(=O)=O)c1C1=NOCC1` [Topramezone, reference compound], the “Injury evaluation (plant injury rating)” value in test [1] (6.25 g/ha) is recorded as 4; in test [1] (12.5 g/ha), 5; in test [2] (6.25 g/ha), 5; in test [2] (12.5 g/ha), 6; in test [3] (6.25 g/ha), 2; in test [3] (12.5 g/ha), 3. Also, the “Injury evaluation (plant injury rating)” value in test [4] (6.25 g/ha) turned out to be 6; in test [4] (12.5 g/ha), 7; in test [5] (6.25 g/ha), 4; in test [5] (12.5 g/ha), 4; in test [6] (6.25 g/ha), 3; in test [6] (12.5 g/ha) it was 4. Moreover, the “Injury evaluation (plant injury rating)” value in test [7] (6.25 g/ha) and in test [7] (12.5 g/ha) was 7 in each case.
